Measured values from PubChem BioAssay (NCI).
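96-well plates; 48 h exposure; 5 concentrations. Endpoints by linear interpolation between flanking doses. Not reached: highest tested concentration assigned. GI50 is the concentration that inhibits growth by half. TGI denotes the concentration required for complete inhibition of growth.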

What was measured:
Assay in all cases: NCI-60 cell line screen, 48 h
[1] = system: HOP-92 NSCLC
[2] = system: NCI/ADR-RES ovarian
[3] = system: MALME-3M melanoma
[4] = system: OVCAR-5 ovarian
[5] = system: M14 melanoma
[6] = system: UO-31 renal
[7] = system: SK-MEL-28 melanoma
[8] = system: SW-620 colon
[9] = system: OVCAR-8 ovarian
[10] = system: NCI-H23 lung
[11] = system: NCI-H226 lung
[12] = system: IGROV1 ovarian
[13] = system: SF-268 CNS
[14] = system: MDA-MB-435
[15] = system: HOP-62 NSCLC
[16] = system: SK-MEL-5 melanoma
[17] = system: UACC-257 melanoma
[18] = system: MDA-MB-231 breast
[19] = system: MOLT-4 leukemia
[20] = system: CAKI-1 renal
[21] = system: A498 renal
[22] = system: CCRF-CEM leukemia
[23] = system: HT29 colon
[24] = system: SF-539 CNS
[25] = system: OVCAR-4 ovarian
[26] = system: HCC-2998 colon
[27] = system: A549 NSCLC
[28] = system: ACHN renal
[29] = system: 786-0 renal
[30] = system: DU-145 prostate
[31] = system: SN12C renal
[32] = system: SK-OV-3 ovarian
[33] = system: MCF7 breast
[34] = system: UACC-62 melanoma
[35] = system: TK-10 renal
[36] = system: SF-295 CNS
[37] = system: COLO 205 colon
[38] = system: RPMI-8226 leukemia
[39] = system: SK-MEL-2 melanoma
[40] = system: K-562 leukemia
[41] = system: HCT-116 colon
[42] = system: SR leukemia
[43] = system: HS 578T breast
[44] = system: HCT-15 colon
[45] = system: U251 CNS
[46] = system: NCI-H522 lung
[47] = system: RXF 393 renal
[48] = system: KM12 colon
[49] = system: EKVX NSCLC
[50] = system: HL-60(TB) leukemia
[51] = system: NCI-H460 lung
[52] = system: T-47D breast
[53] = system: PC-3 prostate
[54] = system: BT-549 breast
[55] = system: SNB-19 CNS

Structure (SMILES): O=[N+]([O-])c1ccc(-c2nnc(SCc3ccc(O)c4ncccc34)n2-c2ccccc2)cc1
- GI50 [1]: 69 nM
- TGI [1]: 598 nM
- GI50 [2]: 7.35 µM
- TGI [2]: > 100 µM
- GI50 [3]: 1170 nM
- TGI [3]: 8.45 µM
- GI50 [4]: 3.35 µM
- TGI [4]: > 100 µM
- GI50 [5]: 493 nM
- TGI [5]: > 100 µM
- GI50 [6]: 1950 nM
- TGI [6]: > 100 µM
- GI50 [7]: 715 nM
- TGI [7]: > 100 µM
- GI50 [8]: 479 nM
- TGI [8]: > 100 µM
- GI50 [9]: 240 nM
- TGI [9]: > 100 µM
- GI50 [10]: 433 nM
- TGI [10]: > 100 µM
- GI50 [11]: 4.3 µM
- TGI [11]: > 100 µM
- GI50 [12]: 1560 nM
- TGI [12]: > 100 µM
- GI50 [13]: 360 nM
- TGI [13]: > 100 µM
- GI50 [14]: 329 nM
- TGI [14]: > 100 µM
- GI50 [15]: 990 nM
- TGI [15]: > 100 µM
- GI50 [16]: 363 nM
- TGI [16]: 1970 nM
- GI50 [17]: 1380 nM
- TGI [17]: > 26.1 µM
- GI50 [18]: 1050 nM
- TGI [18]: 4.69 µM
- GI50 [19]: 777 nM
- TGI [19]: > 100 µM
- GI50 [20]: 2410 nM
- TGI [20]: > 100 µM
- GI50 [21]: 2300 nM
- TGI [21]: 17 µM
- GI50 [22]: 507 nM
- TGI [22]: > 100 µM
- GI50 [23]: 3.19 µM
- TGI [23]: > 100 µM
- GI50 [24]: 377 nM
- TGI [24]: > 100 µM
- GI50 [25]: 2120 nM
- TGI [25]: > 100 µM
- GI50 [26]: 1400 nM
- TGI [26]: > 100 µM
- GI50 [27]: 410 nM
- TGI [27]: > 100 µM
- GI50 [28]: 2030 nM
- TGI [28]: > 100 µM
- GI50 [29]: 1360 nM
- TGI [29]: > 84.2 µM
- GI50 [30]: 442 nM
- TGI [30]: > 100 µM
- GI50 [31]: 293 nM
- TGI [31]: > 100 µM
- GI50 [32]: 1760 nM
- TGI [32]: 6.35 µM
- GI50 [33]: 325 nM
- TGI [33]: > 100 µM
- GI50 [34]: 2060 nM
- TGI [34]: > 100 µM
- GI50 [35]: 2860 nM
- TGI [35]: > 100 µM
- GI50 [36]: 444 nM
- TGI [36]: 5.04 µM
- GI50 [37]: 2510 nM
- TGI [37]: 7.02 µM
- GI50 [38]: 695 nM
- TGI [38]: > 100 µM
- GI50 [39]: 314 nM
- TGI [39]: 1820 nM
- GI50 [40]: 447 nM
- TGI [40]: > 100 µM
- GI50 [41]: 127 nM
- TGI [41]: > 100 µM
- GI50 [42]: 420 nM
- TGI [42]: > 100 µM
- GI50 [43]: 312 nM
- TGI [43]: > 100 µM
- GI50 [44]: 1050 nM
- TGI [44]: > 100 µM
- GI50 [45]: 191 nM
- TGI [45]: > 100 µM
- GI50 [46]: 253 nM
- TGI [46]: > 29.6 µM
- GI50 [47]: 651 nM
- TGI [47]: > 100 µM
- GI50 [48]: 585 nM
- TGI [48]: > 100 µM
- GI50 [49]: 1430 nM
- TGI [49]: > 100 µM
- GI50 [50]: 447 nM
- TGI [50]: > 22.9 µM
- GI50 [51]: 229 nM
- TGI [51]: > 100 µM
- GI50 [52]: 834 nM
- TGI [52]: > 100 µM
- GI50 [53]: 114 nM
- TGI [53]: > 100 µM
- GI50 [54]: 175 nM
- TGI [54]: > 100 µM
- GI50 [55]: 254 nM
- TGI [55]: > 100 µM
